Test results taken from US8598132B2, “Glycosylated indolocarbazoles, method for obtaining same and uses thereof” (Universidad de Oviedo, priority 2008, dated 2013).

Legend:
Type in all cases: biochemical
Settings in all cases: read-out: remaining kinase activity (in %) / percentage of inhibition; for inhibition at 0.01 µM: compound at 10 nM; for inhibition at 0.1 µM: compound at 100 nM
SGK1 = molecular target: T1, SGK1 (Homo sapiens, UniProt O00141); assay: LabChip (Caliper) kinase assay, SGK1
T1 construct: purchased Carna Biosciences
T1 sequence (O00141 1-431): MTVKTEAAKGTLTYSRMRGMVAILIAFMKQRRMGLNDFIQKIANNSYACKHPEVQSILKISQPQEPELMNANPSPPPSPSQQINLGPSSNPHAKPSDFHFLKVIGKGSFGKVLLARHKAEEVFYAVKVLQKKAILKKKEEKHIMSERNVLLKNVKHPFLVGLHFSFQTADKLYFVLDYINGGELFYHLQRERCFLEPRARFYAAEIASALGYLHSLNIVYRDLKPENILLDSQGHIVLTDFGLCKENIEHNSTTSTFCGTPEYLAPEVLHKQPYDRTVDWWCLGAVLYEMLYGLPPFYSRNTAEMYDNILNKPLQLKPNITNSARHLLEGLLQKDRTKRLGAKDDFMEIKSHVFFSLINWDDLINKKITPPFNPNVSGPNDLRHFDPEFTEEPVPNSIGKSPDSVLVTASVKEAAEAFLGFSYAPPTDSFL
Protocol: (§1) The analysis of kinase activity described here was performed using LabChip (Caliper Life Sciences), specifically the Caliper LC3000 and the EZ Reader II instruments.
(§2) The kinase assay used measures the conversion of a fluorescent peptide (substrate) to a phosphorylated product. The reaction mixture, in a microplate well, is introduced by a capillary in a chip where the non-phosphorylated substrate and the phosphorylated product are separated by […]. The intensity of the fluorescent signal over time is related to the reaction progress. The phosphorylated product migrates quicker than the non-phosphorylated substrate and the signals of the two forms of the peptide appear as differentiated peaks. The Caliper determines the peak height and calculates the ratio of product to the peak sum (P/(P+S)). This value is used to compare wells with compounds and wells with controls and thus determine the % of inhibition for the given product.
(§3) The followings kinases were used for the enzymatic inhibition studies, between brackets the value of the Michaelis-Menten constant, Km, of the ATP (Adenosine triphosphate) for each kinase, in μM: obtained from Carna Biosciences: MAPKAPK2 (4.6), AurA (3.6), AurB (5), PKCζ (3.8), RSK1 (23.3), PRAK (5), Erk1 (33.4), PKD2 (32.1), CK1d (16.3), CHK1 (33), ABL (61.7), FYN (36), LYNa (17), CHK2 (57.8), MET (79.5), LCK (28.5), SRC (38), GSK3β (7.3), Erk2 (62.1), PKACα (1.7), AKT2 (186.1), INSR (871.8), p38a (396.5), AKT1(48), MSK1 (21.2), PKCβ2 (84.8), ROCK2 (3.3), PIM2 (4.9), AMPK (38.6), KDR (164.8), IRAK4 (196.5), SGK1 (121.8), SYK (33.5); obtained from Invitrogen: CDK2 (57.6), BTK (123), HGK (80); obtained from Upstate: MST2 (36.6), PKGα (16), PAK2 (1.9), IGF1R (320), FGFR1 (171), MARK1 (33), CAMK2δ (22.4), c-TAK1 (66), DYRK1a (18.1), CaMK4 (3.9), FLT3 (350), c-Raf (6.2), P70S6K (95).
(§4) The compounds were dissolved in 100% DMSO and were diluted at 25 times the final concentration desired for the assay. In the case of the determination of Cl50, serial dilutions were made to reach eight concentrations and give rise to the inhibition curve. 1 μL of each concentration is transferred, in duplicate to a 384-well microplate. 12 μL of enzymatic buffer is added to each well containing purified kinase (several suppliers as indicated above), 100 mM HEPES, pH 7.5, 1 mM DTT (Calbiochem), 0.002% Brij-35 (Sigma) and also in presence of 10 mM MgCl2 as cofactor, except for INSR and IRAK4 wherein 10 mM MnCl2 is used instead of MgCl2. For the kinases CAMK26 and CAMK4, 1 mM CaCl2 and 6.7 μg/mL of calmodulin are also added. For KDR kinase, 0.05% of the CHAPSO detergent is added. For the c-Raf kinase, 10 mM MnCl2 is added. For PKCβ2 0.02 μg/mL of PS/PMA is added. For PKGα se 10 μM of cGMP (cyclic guanosine monophosphate) is added. The compound and the enzyme are left for 15 minutes preincubation and, then, the following are added to each well: 12 μL of peptide buffer/ATP containing 100 mM HEPES, pH 7.5, 1.5 μM peptide marker with fluorescein (specific for the corresponding kinase), ATP (at concentration KM), and 0.002% Brij-35 to start the reaction. Generally, the reactions are incubated for 1-1.5 h at ambient temperature to obtain an adequate conversion (15-40%) of the peptide to the phosphorylated product. The reactions were ended by the addition of 45 μL of buffer containing 0 mM EDTA. The microplates were read by the LabChip 3000 using a 12-channel LabChip. The P/(P+S) values were obtained as described above and the CI50 curves were generated using XIfit. […]

p38a = molecular target: T2, p38a (Homo sapiens, UniProt Q16539); assay: LabChip (Caliper) kinase assay, p38a
T2 construct: purchased Carna Biosciences
Protocol: as §1, §2, §3, §4

MST2 = molecular target: T3, MST2 (Homo sapiens, UniProt Q13188); assay: LabChip (Caliper) kinase assay, MST2
T3 construct: purchased Upstate
T3 sequence (Q13188 1-491): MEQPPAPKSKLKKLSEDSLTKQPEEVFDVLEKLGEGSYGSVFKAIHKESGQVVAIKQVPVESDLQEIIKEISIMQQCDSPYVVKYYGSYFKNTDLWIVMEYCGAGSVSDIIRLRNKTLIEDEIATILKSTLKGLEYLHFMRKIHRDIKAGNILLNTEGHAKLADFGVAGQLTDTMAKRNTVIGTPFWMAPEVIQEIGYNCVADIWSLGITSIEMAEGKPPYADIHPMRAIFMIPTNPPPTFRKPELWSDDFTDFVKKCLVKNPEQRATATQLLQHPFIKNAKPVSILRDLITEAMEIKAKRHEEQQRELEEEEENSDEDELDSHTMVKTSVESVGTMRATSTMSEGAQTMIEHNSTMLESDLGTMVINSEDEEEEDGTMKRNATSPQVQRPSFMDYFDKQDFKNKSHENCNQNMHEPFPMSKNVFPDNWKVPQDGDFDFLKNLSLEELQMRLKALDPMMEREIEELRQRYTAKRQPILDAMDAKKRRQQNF
Protocol: as §1, §2, §3, §4

T2 sequence (Q16539 whole entry): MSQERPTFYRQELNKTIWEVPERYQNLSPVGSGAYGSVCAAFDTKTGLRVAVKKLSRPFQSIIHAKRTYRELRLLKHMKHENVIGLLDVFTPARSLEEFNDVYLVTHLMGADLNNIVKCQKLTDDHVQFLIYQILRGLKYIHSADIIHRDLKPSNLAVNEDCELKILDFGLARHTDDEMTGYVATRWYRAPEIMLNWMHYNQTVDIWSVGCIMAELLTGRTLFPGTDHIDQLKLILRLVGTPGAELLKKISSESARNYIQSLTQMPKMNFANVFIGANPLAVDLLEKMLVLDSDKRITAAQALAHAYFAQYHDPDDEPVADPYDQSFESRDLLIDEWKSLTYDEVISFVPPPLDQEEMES

SMILES | inhibition at 0.01 µM (SGK1) [%] | inhibition at 0.1 µM (SGK1) [%] | inhibition at 0.01 µM (p38a) [%] | inhibition at 0.1 µM (p38a) [%] | inhibition at 0.01 µM (MST2) [%] | inhibition at 0.1 µM (MST2) [%]
C[C@@H]1O[C@@H](n2c3ccccc3c3c4c(c5c6ccccc6[nH]c5c32)C(=O)NC4=O)[C@H](O)[C@H](O)[C@H]1O [formula (III), N^13-1′-β-L-rhamnosylarcyriaflavin] | 8 | 13 | 0 | -1 | 2 | 10
C[C@@H]1O[C@@H](n2c3ccccc3c3c4c(c5c6ccccc6[nH]c5c32)C(=O)NC4=O)C[C@H](O)[C@H]1O [formula (IV), N^13-1′-β-L-olivosylarcyriaflavin] | 9 | 17 | -2 | -2 | 2 | 15
C[C@@H]1O[C@@H](n2c3ccccc3c3c4c(c5c6ccccc6[nH]c5c32)C(=O)NC4=O)C[C@@H](O)[C@H]1O [formula (V), N^13-1′-β-L-digitoxosylarcyriaflavin] | 17 | 37 | 1 | -2 | 16 | 54
C[C@H]1O[C@@H](n2c3ccccc3c3c4c(c5c6ccccc6[nH]c5c32)C(=O)NC4=O)C[C@@H](O)[C@@H]1O [formula (VI), N^13-1′-β-D-olivosylarcyriaflavin] | 12 | 27 | -1 | -1 | 13 | 65
C[C@@H]1O[C@@H](n2c3ccccc3c3c4c(c5c6ccccc6[nH]c5c32)CNC4=O)[C@H](O)[C@H](O)[C@H]1O [formula (XII), N^13-1′-β-L-rhamnosyl-k252c] | 7 | 6 | -1 | 0 | 4 | 19
C[C@@H]1O[C@@H](n2c3ccccc3c3c4c(c5c6ccccc6[nH]c5c32)CNC4=O)C[C@H](O)[C@H]1O [formula (XIII), N^13-1′-β-L-olivosyl-k252c] | 8 | 15 | -2 | -3 | 4 | 33
C[C@@H]1O[C@@H](n2c3ccccc3c3c4c(c5c6ccccc6[nH]c5c32)CNC4=O)C[C@@H](O)[C@H]1O [formula (XIV), N^13-1′-β-L-digitoxosyl-k252c] | 6 | 14 | -1 | -2 | 7 | 34
C[C@H]1O[C@@H](n2c3ccccc3c3c4c(c5c6ccccc6[nH]c5c32)CNC4=O)C[C@@H](O)[C@@H]1O [formula (XV), N^13-1′-β-D-olivosyl-k252c] | 9 | 12 | -1 | -3 | 12 | 78
